Columns and labels:
[1] = biological target: T1, PDE4D5: full-length human PDE4D5 isozyme (Homo sapiens, UniProt Q08499); test: PDE4 IC50 determination by Scintillation Proximity Assay (SPA), full-length PDE4D5; assay type: biochemical; conditions: cell lysate, [3H]cAMP SPA
T1 construct: made in house; host or cells: baculovirus infected insect cells (pFastBacHT)
Method in brief: (§1)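 Unpurified enzyme from cell lysates (PDE4B2 2.5 μl, PDE4D5 0.083 μl of 50% glycerol stock/ml) hydrolysing [3H]cAMP in 50 mM Tris pH 7.5, 8.3 mM MgCl, 1.7 mM EGTA, 0.01% BSA, 30 min at 30 °C. Stopped with yttrium silicate SPA beads in 18 mM ZnSO4; bead-bound [3H]AMP counted. IC50 by non-linear regression.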

[2] = biological target: T2, PDE4B: catalytic domain of human PDE4B from S152-S528 (Homo sapiens, UniProt Q07343); test: PDE4 IC50 determination by Scintillation Proximity Assay (SPA), PDE4B catalytic domain; assay type: biochemical; conditions: [3H]cAMP SPA, 30 min at 30° C.
T2 construct: The catalytic domain of human PDE4B from S152-S528; His6 (N, cleaved yes); thrombin cleavage site (N, cleaved yes); made in house; host or cells: E. coli BL21 (DE3) RIL
Method in brief: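 Human PDE4B catalytic domain (80 ng/ml) hydrolysed [3H]cAMP in 50 mM Tris pH 7.5, 8.3 mM MgCl, 1.7 mM EGTA, 0.01% BSA for 30 min at 30 °C. Reaction was stopped with yttrium silicate SPA beads in 18 mM ZnSO4, and bound [3H]AMP was counted by scintillation. IC50 came from non-linear regression.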

[3] = biological target: T3, PDE4B2: full-length human PDE4B2 isozyme (Homo sapiens, UniProt Q07343); test: PDE4 IC50 determination by Scintillation Proximity Assay (SPA), full-length PDE4B2; assay type: biochemical; conditions: cell lysate, [3H]cAMP SPA
T3 construct: made in house; host or cells: baculovirus infected insect cells (pFastBacHT)
Method in brief: as §1

[4] = test system: TNF-α release from whole blood cultures stimulated with LPS; test: IC50 by TNF alpha production upon stimulation of whole blood cultures with LPS; assay type: cell-based; conditions: human whole blood (buffy coat) culture, 100 ng/ml LPS, 4 hours; read-out: h TNFα IC50
Method in brief: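 Human buffy coat, diluted with 7 volumes of RPMI/2.5% heat-inactivated FBS, was preincubated with compound (8-point 1:3 series) for 1 h at 37 °C. It was then stimulated with 100 ng/ml LPS (final) for 4 h. Supernatant TNF-α was measured by sandwich ELISA at 450 nm, and IC50 was set between DMSO (0%) and PDE4-inhibitor (100%) controls.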

[5] = test system: TNFα levels in serum of LPS-challenged rats; test: Rat inhibition studies: serum TNFα after iv LPS challenge; assay type: in vivo; conditions: LPS 0.1 mg/kg iv 2 h after dosing, percent decrease in serum TNFα versus vehicle, read-out: % inhibition r TNFα; for inhibition in vivo at 5 mg/kg: 5 mg/kg po
Method: All studies were done with male rats CD (SD) IGS BR (Crl) (Charles River, France), which were grouped in to 5 animal groups.
At the end of the acclimatization period, the non-fasted rats were weighed, individually identified on the tail with a permanent marker and administered by oral (po) or interperitoneal (ip) route with either vehicle, reference or test compound in a volume of 10 mL/kg adapted to the body weight. The animals were gathered in groups of 5 animals in a polystyrene labeled cage with sawdust covered floors. 2-hours after vehicle, reference or test substance administration, rats received an intravenous (iv) injection of 0.1 mg/kg LPS in a volume of 1 mL/kg of body weight. 2 h after LPS challenge (or as indicated in Tables 3B and 4B), blood samples were collected into tubes without anticoagulant by retro-orbital puncture under gas (isoflurane) anesthesia. Samples were allowed to clot at room temperature for 5 to 10 min then put on ice until there were prepared by centrifugation (6000×g for 3 min at 4° C.) and stored at −20° C. until use. TNFα levels were measured in serum samples in duplicate by ELISA technique according to the manufacturer's procedure (Rat TNFα kit Quantikine M (RTA00, R&D System, France)). Data are reported as percent decrease in observed TNFα levels versus TNFα levels observed for vehicle dosed animal groups.

T1 sequence (Q08499 with tags, fused parts or gaps isoform Q08499-6): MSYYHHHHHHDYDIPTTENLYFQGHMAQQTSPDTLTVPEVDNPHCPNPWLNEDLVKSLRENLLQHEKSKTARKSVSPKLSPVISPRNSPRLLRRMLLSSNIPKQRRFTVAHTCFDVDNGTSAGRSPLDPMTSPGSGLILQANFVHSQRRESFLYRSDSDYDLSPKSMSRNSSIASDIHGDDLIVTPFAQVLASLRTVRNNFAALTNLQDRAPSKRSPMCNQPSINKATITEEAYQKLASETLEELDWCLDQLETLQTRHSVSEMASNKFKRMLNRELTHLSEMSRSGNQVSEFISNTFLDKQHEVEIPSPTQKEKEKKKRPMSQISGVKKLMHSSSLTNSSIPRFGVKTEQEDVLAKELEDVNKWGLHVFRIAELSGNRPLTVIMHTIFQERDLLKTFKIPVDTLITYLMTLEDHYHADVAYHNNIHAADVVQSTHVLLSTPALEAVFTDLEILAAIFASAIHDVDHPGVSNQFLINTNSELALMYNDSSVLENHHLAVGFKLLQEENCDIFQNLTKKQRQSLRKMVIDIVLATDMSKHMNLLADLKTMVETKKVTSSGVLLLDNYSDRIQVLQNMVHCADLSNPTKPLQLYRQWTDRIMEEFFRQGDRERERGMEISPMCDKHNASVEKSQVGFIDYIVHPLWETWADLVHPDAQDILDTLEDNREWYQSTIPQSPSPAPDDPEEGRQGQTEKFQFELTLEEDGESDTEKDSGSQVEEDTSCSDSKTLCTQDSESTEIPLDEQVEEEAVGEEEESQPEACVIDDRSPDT
T3 sequence (Q07343 with tags, fused parts or gaps isoform Q07343-2): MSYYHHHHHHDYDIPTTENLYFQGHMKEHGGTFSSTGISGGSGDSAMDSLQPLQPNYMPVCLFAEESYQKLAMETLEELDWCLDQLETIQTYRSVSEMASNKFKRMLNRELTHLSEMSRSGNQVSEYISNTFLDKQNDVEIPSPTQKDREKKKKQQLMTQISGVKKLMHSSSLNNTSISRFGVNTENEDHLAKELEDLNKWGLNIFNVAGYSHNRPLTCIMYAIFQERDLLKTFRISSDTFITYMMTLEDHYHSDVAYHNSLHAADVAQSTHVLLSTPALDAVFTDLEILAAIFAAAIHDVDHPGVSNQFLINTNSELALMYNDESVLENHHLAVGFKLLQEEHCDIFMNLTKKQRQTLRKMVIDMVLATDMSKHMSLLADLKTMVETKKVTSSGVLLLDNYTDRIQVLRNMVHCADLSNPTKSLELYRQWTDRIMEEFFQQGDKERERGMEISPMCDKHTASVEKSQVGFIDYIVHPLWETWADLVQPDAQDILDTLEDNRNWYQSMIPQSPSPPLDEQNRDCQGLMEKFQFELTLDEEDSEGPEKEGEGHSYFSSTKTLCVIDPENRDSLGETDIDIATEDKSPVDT
T2 sequence (Q07343 324-700): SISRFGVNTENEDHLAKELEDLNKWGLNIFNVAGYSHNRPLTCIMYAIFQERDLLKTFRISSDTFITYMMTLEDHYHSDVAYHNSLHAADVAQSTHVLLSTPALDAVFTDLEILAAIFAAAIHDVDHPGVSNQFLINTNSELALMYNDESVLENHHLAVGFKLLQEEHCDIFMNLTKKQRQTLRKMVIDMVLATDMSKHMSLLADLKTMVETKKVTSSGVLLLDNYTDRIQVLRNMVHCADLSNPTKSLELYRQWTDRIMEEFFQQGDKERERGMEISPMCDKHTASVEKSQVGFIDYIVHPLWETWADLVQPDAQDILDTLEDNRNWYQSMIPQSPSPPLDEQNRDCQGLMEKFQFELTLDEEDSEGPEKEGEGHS

| Compound | IC50 [1] [µM] | IC50 [2] [µM] | IC50 [3] [µM] | IC50 [4] [µM] | inhibition in vivo at 50 mg/kg ([5]; 50 mg/kg po or ip) [%] | inhibition in vivo at 5 mg/kg [5] [%] |
| --- | --- | --- | --- | --- | --- | --- |
| COc1ccc(-c2cn(S(=O)(=O)c3cccc4cccnc34)c3ncccc23)cc1OC [Compound 7, 8-[3-(3,4-dimethoxy-phenyl)-pyrrolo[2,3-b]pyridine-1-sulfonyl]-quinoline] | < 10 | < 10 | < 10 | ≤ 10 | ≥ 20 |  |
| CCOc1ccc2ccccc2c1C(=O)n1ccc2c(-c3ccc(OC)c(OC)c3)ccnc21 [Compound 48, [4-(3,4-Dimethoxy-phenyl)-pyrrolo[2,3-b]pyridin-1-yl]-(2-ethoxy-naphthalen-1-yl)-methanone] | < 10 | < 10 | < 10 | ≤ 10 |  | ≥ 20 |
| CCOc1ccccc1C(=O)n1ccc2cc(-c3ccc(OC)c(OC)c3)cnc21 [Compound 83, [5-(3,4-Dimethoxy-phenyl)-pyrrolo[2,3-b]pyridin-1-yl]-(2-ethoxy-phenyl)-methanone] | < 10 | < 10 | < 10 | ≤ 10 |  | ≥ 20 |
| COc1ccc(-c2cn(C(=O)c3ccccc3OC(C)=O)c3ncccc23)cc1OC [Compound 110, Acetic acid 2-[3-(3,4-dimethoxy-phenyl)-pyrrolo[2,3-b]pyridine-1-carbonyl]-phenyl ester] | < 10 | < 10 | < 10 | ≤ 10 |  | ≥ 20 |
| COc1ccc(-c2ccnc3c2ccn3S(=O)(=O)c2cccc3cccnc23)cc1OC [Compound 126, 8-[4-(3,4-Dimethoxy-phenyl)-pyrrolo[2,3-b]pyridine-1-sulfonyl]-quinoline] | < 10 | < 10 | < 10 | ≤ 10 |  | ≥ 20 |
